Assay: Miscibility of unprocessed prednisolone acetate with water
Format: physicochemical
Conditions: floats on the surface of water
Procedure: (§1) API Particle size reduction. The API, prednisolone acetate, of the present invention is destined for inclusion in ophthalmic formulation and characterized by a target PSD of: D10≤0.15 μM, D50≤0.75 μM, D90≤2.5 μM. […] Addition of surfactant (e.g. polysorbate) to aqueous solution was required to form slurries of prednisolone acetate suitable for use as vehicles in particle size reduction experiments that employed bead milling and high-pressure homogenization.
as §1, with “and in some embodiments” for “and”, “D10≤1.0” for “D10≤0.15”, “D50≤2.2” for “D50≤0.75”, “D90≤4.5” for “D90≤2.5”, “that” for “that employed bead milling and”

- miscibility with water: immiscible with water
SMILES: CC(=O)OCC(=O)[C@@]1(O)CC[C@H]2[C@@H]3CCC4=CC(=O)C=C[C@]4(C)[C@H]3[C@@H](O)C[C@@]21C [prednisolone acetate]

From patent US20250268824A1, “METHODS FOR MAKING REDUCED PARTICLE SIZE COMPOUNDS” (TaP Pharmaceuticals AG, priority 2024, published 2025)
